According to ChEMBL document CHEMBL5696444 (Nat Commun, 2017):

How the values were obtained:
[1] = biological target: Dual specificity protein kinase CLK2 (Homo sapiens, UniProt P49760); assay: Inhibition of N-terminal FLAG-tagged human CLK2 at 1110 nM in the presence of ATP by Kinome scan method relative to control
[2] = biological target: Dual specificity tyrosine-phosphorylation-regulated kinase 1A (Homo sapiens, UniProt Q13627); assay: Inhibition of DYRK1A (unknown origin) at 123 nM in the presence of ATP by Kinome scan method relative to control; conditions: time > 6.0 hrs

Chain of Dual specificity protein kinase CLK2 (P49760 whole entry, looked up): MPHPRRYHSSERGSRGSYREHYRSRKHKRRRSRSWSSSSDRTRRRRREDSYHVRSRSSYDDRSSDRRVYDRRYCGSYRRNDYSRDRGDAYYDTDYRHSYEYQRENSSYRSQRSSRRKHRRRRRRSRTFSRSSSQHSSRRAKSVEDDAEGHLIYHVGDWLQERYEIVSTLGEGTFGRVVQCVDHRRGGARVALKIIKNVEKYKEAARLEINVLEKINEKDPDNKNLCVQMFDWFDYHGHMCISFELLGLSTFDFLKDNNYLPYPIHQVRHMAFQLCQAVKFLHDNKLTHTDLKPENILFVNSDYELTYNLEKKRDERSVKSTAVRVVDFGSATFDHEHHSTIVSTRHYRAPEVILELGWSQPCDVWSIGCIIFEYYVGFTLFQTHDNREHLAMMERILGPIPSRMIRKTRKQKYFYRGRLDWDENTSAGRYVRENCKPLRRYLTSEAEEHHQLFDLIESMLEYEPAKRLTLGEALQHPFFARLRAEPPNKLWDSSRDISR

- inhibition [1]: 100%
- inhibition [2]: 74%
Structure (SMILES): CN1CCN(C(=O)C(C)(C)c2ccc(C(=O)Nc3cn4cc(-c5ccncc5)ccc4n3)cc2)CC1 [T3-CLK]
